Results from the supplement of paper PMC10307832.

Experiments:
Assay in all cases: relative viability (nuclei count vs DMSO), 5 days (fraction); higher = more cells survive
[1] = tested on: COR-L23
Summary of the method: (§1)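 Relative viability equals treated-well nuclei counts divided by vehicle-well nuclei counts. Counts came from 4× images of lung cancer cell lines grown in 1536-well plates for 5 days after pin-tool dosing on the day after seeding. Dosing used one drug alone or a fixed anchor-drug dose plus five library-drug doses (not always all listed) in √10 steps, and values are medians of duplicate plates.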

[2] = tested on: ChaGo-K-1
Summary of the method: as §1

[3] = tested on: EMC-BAC-2
Summary of the method: as §1

[4] = tested on: EPLC-272H
Summary of the method: as §1

[5] = tested on: H3255
Summary of the method: as §1

[6] = tested on: HCC-44
Summary of the method: as §1

[7] = tested on: HCC-827
Summary of the method: as §1

[8] = tested on: LCLC-103H
Summary of the method: as §1

[9] = tested on: LU99A
Summary of the method: as §1

[10] = tested on: NCI-H1395
Summary of the method: as §1

[11] = tested on: NCI-H1563
Summary of the method: as §1

[12] = tested on: NCI-H1651
Summary of the method: as §1

[13] = tested on: NCI-H1793
Summary of the method: as §1

[14] = tested on: NCI-H1944
Summary of the method: as §1

[15] = tested on: NCI-H2023
Summary of the method: as §1

[16] = tested on: NCI-H2085
Summary of the method: as §1

[17] = tested on: NCI-H2087
Summary of the method: as §1

[18] = tested on: NCI-H2405
Summary of the method: as §1

[19] = tested on: NCI-H520
Summary of the method: as §1

[20] = tested on: NCI-H650
Summary of the method: as §1

[21] = tested on: NCI-H838
Summary of the method: as §1

[22] = tested on: SK-MES-1
Summary of the method: as §1

Compound: Nc1ccn([C@@H]2O[C@H](CO)[C@@H](O)[C@@H]2O)c(=O)n1 [Cytarabine] + CS(=O)(=O)N1CCN(Cc2cc3nc(-c4cccc5[nH]ncc45)nc(N4CCOCC4)c3s2)CC1 [Pictilisib] (partner 1 µM)
- relative viability ([1]; first compound 0.005 µM): 0.637
- relative viability ([1]; first compound 0.01581 µM): 0.51
- relative viability ([1]; first compound 0.05 µM): 0.532
- relative viability ([1]; first compound 0.1581 µM): 0.171
- relative viability ([1]; first compound 0.5 µM): 0.112
- relative viability ([2]; first compound 0.005 µM): 0.583
- relative viability ([2]; first compound 0.01581 µM): 0.459
- relative viability ([2]; first compound 0.05 µM): 0.284
- relative viability ([2]; first compound 0.1581 µM): 0.365
- relative viability ([2]; first compound 0.5 µM): 0.401
- relative viability ([3]; first compound 0.005 µM): 0.42
- relative viability ([3]; first compound 0.01581 µM): 0.494
- relative viability ([3]; first compound 0.05 µM): 0.366
- relative viability ([3]; first compound 0.1581 µM): 0.246
- relative viability ([3]; first compound 0.5 µM): 0.165
- relative viability ([4]; first compound 0.005 µM): 0.246
- relative viability ([4]; first compound 0.01581 µM): 0.297
- relative viability ([4]; first compound 0.05 µM): 0.242
- relative viability ([4]; first compound 0.1581 µM): 0.187
- relative viability ([4]; first compound 0.5 µM): 0.207
- relative viability ([5]; first compound 0.005 µM): 0.438
- relative viability ([5]; first compound 0.01581 µM): 0.446
- relative viability ([5]; first compound 0.05 µM): 0.403
- relative viability ([5]; first compound 0.1581 µM): 0.294
- relative viability ([5]; first compound 0.5 µM): 0.303
- relative viability ([6]; first compound 0.005 µM): 0.492
- relative viability ([6]; first compound 0.01581 µM): 0.599
- relative viability ([6]; first compound 0.05 µM): 0.5
- relative viability ([6]; first compound 0.1581 µM): 0.349
- relative viability ([6]; first compound 0.5 µM): 0.385
- relative viability ([7]; first compound 0.005 µM): 1.05
- relative viability ([7]; first compound 0.01581 µM): 0.876
- relative viability ([7]; first compound 0.05 µM): 0.683
- relative viability ([7]; first compound 0.1581 µM): 0.474
- relative viability ([7]; first compound 0.5 µM): 0.408
- relative viability ([8]; first compound 0.005 µM): 0.614
- relative viability ([8]; first compound 0.01581 µM): 0.624
- relative viability ([8]; first compound 0.05 µM): 0.565
- relative viability ([8]; first compound 0.1581 µM): 0.513
- relative viability ([8]; first compound 0.5 µM): 0.617
- relative viability ([9]; first compound 0.005 µM): 0.372
- relative viability ([9]; first compound 0.01581 µM): 0.305
- relative viability ([9]; first compound 0.05 µM): 0.282
- relative viability ([9]; first compound 0.1581 µM): 0.308
- relative viability ([9]; first compound 0.5 µM): 0.299
- relative viability ([10]; first compound 0.005 µM): 0.616
- relative viability ([10]; first compound 0.01581 µM): 0.564
- relative viability ([10]; first compound 0.05 µM): 0.391
- relative viability ([10]; first compound 0.1581 µM): 0.365
- relative viability ([10]; first compound 0.5 µM): 0.316
- relative viability ([11]; first compound 0.005 µM): 0.595
- relative viability ([11]; first compound 0.01581 µM): 0.649
- relative viability ([11]; first compound 0.05 µM): 0.657
- relative viability ([11]; first compound 0.1581 µM): 0.589
- relative viability ([11]; first compound 0.5 µM): 0.6
- relative viability ([12]; first compound 0.005 µM): 0.446
- relative viability ([12]; first compound 0.01581 µM): 0.522
- relative viability ([12]; first compound 0.05 µM): 0.533
- relative viability ([12]; first compound 0.1581 µM): 0.17
- relative viability ([12]; first compound 0.5 µM): 0.165
- relative viability ([13]; first compound 0.005 µM): 0.312
- relative viability ([13]; first compound 0.01581 µM): 0.29
- relative viability ([13]; first compound 0.05 µM): 0.383
- relative viability ([13]; first compound 0.1581 µM): 0.307
- relative viability ([13]; first compound 0.5 µM): 0.194
- relative viability ([14]; first compound 0.005 µM): 0.29
- relative viability ([14]; first compound 0.01581 µM): 0.267
- relative viability ([14]; first compound 0.05 µM): 0.236
- relative viability ([14]; first compound 0.1581 µM): 0.201
- relative viability ([14]; first compound 0.5 µM): 0.189
- relative viability ([15]; first compound 0.005 µM): 0.193
- relative viability ([15]; first compound 0.01581 µM): 0.137
- relative viability ([15]; first compound 0.05 µM): 0.112
- relative viability ([15]; first compound 0.1581 µM): 0.0708
- relative viability ([15]; first compound 0.5 µM): 0.0698
- relative viability ([16]; first compound 0.005 µM): 0.422
- relative viability ([16]; first compound 0.01581 µM): 0.433
- relative viability ([16]; first compound 0.05 µM): 0.401
- relative viability ([16]; first compound 0.1581 µM): 0.367
- relative viability ([16]; first compound 0.5 µM): 0.281
- relative viability ([17]; first compound 0.005 µM): 0.804
- relative viability ([17]; first compound 0.01581 µM): 0.751
- relative viability ([17]; first compound 0.05 µM): 0.805
- relative viability ([17]; first compound 0.1581 µM): 0.461
- relative viability ([17]; first compound 0.5 µM): 0.355
- relative viability ([18]; first compound 0.005 µM): 0.398
- relative viability ([18]; first compound 0.01581 µM): 0.334
- relative viability ([18]; first compound 0.05 µM): 0.319
- relative viability ([18]; first compound 0.1581 µM): 0.301
- relative viability ([18]; first compound 0.5 µM): 0.229
- relative viability ([19]; first compound 0.005 µM): 0.228
- relative viability ([19]; first compound 0.01581 µM): 0.276
- relative viability ([19]; first compound 0.05 µM): 0.288
- relative viability ([19]; first compound 0.1581 µM): 0.27
- relative viability ([19]; first compound 0.5 µM): 0.309
- relative viability ([20]; first compound 0.005 µM): 0.831
- relative viability ([20]; first compound 0.01581 µM): 0.688
- relative viability ([20]; first compound 0.05 µM): 0.419
- relative viability ([20]; first compound 0.1581 µM): 0.224
- relative viability ([20]; first compound 0.5 µM): 0.214
- relative viability ([21]; first compound 0.005 µM): 0.334
- relative viability ([21]; first compound 0.01581 µM): 0.495
- relative viability ([21]; first compound 0.05 µM): 0.435
- relative viability ([21]; first compound 0.1581 µM): 0.257
- relative viability ([21]; first compound 0.5 µM): 0.243
- relative viability ([22]; first compound 0.005 µM): 0.333
- relative viability ([22]; first compound 0.01581 µM): 0.305
- relative viability ([22]; first compound 0.05 µM): 0.227
- relative viability ([22]; first compound 0.1581 µM): 0.194
- relative viability ([22]; first compound 0.5 µM): 0.205
